Reference: patent US20110263696A1, “PROANTHOCYANIDINS FROM CINNAMON AND ITS WATER SOLUBLE EXTRACT INHIBIT TAU AGGREGATION” (priority 2007, published 2011)

Legend:
tau polypeptides = test: Light scattering measurements (absorbance at 350 nm) of tau aggregation; type: biochemical, human
Description: FIG. 11. Dose response of cinnamon (oxidized) on tau aggregation. […] In this experiment, cinnamon was incubated overnight in 10 mM NH4OH.
FIG. 12. Effect of cinnamon A trimer on light scattering of tau.
In one illustrative embodiment of the invention, the effects of cinnamon extract or purified cinnamon proanthocyanidins on tau aggregation can be followed readily in a spectrophotometer by measuring the change in absorbance at 350 nm. The association of tau promoted by heparin causes an increase in absorbance. […] Different buffers and temperatures may be used if desired to study factor influencing aggregation.

FL-tau = target: T1, FL-tau (Homo sapiens, UniProt P10636); test: Electron microscopy of FL-tau fibers; type: biochemical; settings: FL-tau 50 uM, heparin 0.1 mg/ml; trimer 200 uM (FIG. 3d)
T1 construct: full-length tau and an engineered truncation fragment of tau (tau187) were generated by over-expression of the recombinant human protein in bacteria; made in house; host or cells: bacteria
T1 sequence (P10636 1-441 isoform P10636-8): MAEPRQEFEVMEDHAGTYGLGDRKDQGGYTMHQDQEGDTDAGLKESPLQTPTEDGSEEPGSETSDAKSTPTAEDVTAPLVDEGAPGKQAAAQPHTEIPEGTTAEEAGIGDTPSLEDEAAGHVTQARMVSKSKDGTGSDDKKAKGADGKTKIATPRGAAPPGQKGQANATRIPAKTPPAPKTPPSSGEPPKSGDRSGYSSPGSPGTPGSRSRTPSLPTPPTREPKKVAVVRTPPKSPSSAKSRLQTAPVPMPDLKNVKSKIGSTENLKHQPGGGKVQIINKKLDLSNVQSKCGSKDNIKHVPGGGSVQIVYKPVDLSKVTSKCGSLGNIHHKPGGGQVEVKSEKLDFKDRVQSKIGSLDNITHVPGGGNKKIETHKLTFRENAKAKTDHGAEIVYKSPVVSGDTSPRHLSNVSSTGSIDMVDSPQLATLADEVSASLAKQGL
Description: FIG. 3. Proanthocyanidins inhibit tau aggregation. A) Turbidity assay. Aggregation of FL-tau (50 uM) was initiated with heparin (0.1 mg/ml) in 20 mM NaPO4, pH 7.0. Curve 1: no proanthocyanidin; Curve 2: 200 uM purified A-type trimer. B) After 45 min, reactions were centrifuged at 100,000 g×60 min. The amount of tau in the pellets (P) vs. supernatants (S) were examined by SDS-PAGE. Markers (top to bottom) are 97, 66, 45 kDa. C, D) EM after aggregation for 45 min. Scale bars=500 nm; C) no proanthocyanidin, D) 200 uM purified A-type trimer.
(§1) As shown by the data disclosed in the various figures, proanthocyanidins bind to tau and inhibit tau aggregation. […] In these experiments, heparin-induced aggregation of tau into PHF-like fibers is routinely monitored by four methods: 1) enhanced Thioflavin S fluorescence emission; 2) increased turbidity measured by OD350; 3) ultracentrifugation of sarkosyl-treated samples, and 4) electron microscopy. […] To ensure that proanthocyanidin molecules were not simply binding to and precipitating tau in a non-specific manner, the amount of tau that fractionated with the pellet vs. supernatant after high-speed ultracentrifugation was analyzed.

tau187 [1] = target: T2, tau187 (Homo sapiens, UniProt P10636); test: Electron microscopy of tau187 fibers; type: biochemical; settings: tau187 50 uM, heparin 0.1 mg/ml; trimer 200 uM (FIG. 6)
T2 construct: his; made in house; host or cells: bacteria
T2 sequence (P10636 572-758 limits assumed): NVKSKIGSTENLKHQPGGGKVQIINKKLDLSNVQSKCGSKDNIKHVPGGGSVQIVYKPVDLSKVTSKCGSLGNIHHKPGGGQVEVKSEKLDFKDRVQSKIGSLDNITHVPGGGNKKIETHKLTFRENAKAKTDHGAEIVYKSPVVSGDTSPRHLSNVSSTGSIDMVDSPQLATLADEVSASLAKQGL
Description: FIG. 6. […] Aggregation of tau^187 (50 uM) was initiated with heparin (0.1 mg/ml) in 20 mM NaPO4, pH 7.0. in the presence of: no proanthocyanidin (left panel), or 200 uM purified A-type trimer (right panel). Scale: Bars=500 nm
FIG. 13. Effect of oxidized cinnamon on tau filament formation. […] Left panel: no cinnamon; right panel 10 μM oxidized cinnamon.
FIG. 15A. […] 50 μM Tau^187 was incubated with 0.11 mg/ml heparin (18 kDa) at 23° C. Aggregation was monitored by turbidity (OD350). Cinnamaldehyde was present at a final concentration of 0, 50 and 100 μM. FIG. 15B. Electron microscopy of tau fibers in the presence of cinnamaldehyde (CA). Tau fibers were visualized by electron microscopy after 5 hrs of aggregation in the presence of: 0 CA (left panel); B) 100 uM CA (right panel). […] FIG. 15 C. Trans-cinnamaldehyde chemical structure.
Two hexapeptide motifs in tau are critical for tau aggregation and fiber formation (see, e.g. von Bergen et al., Proc Nad Acad Sci USA 97, 5129-34 (2000)). These motifs lie in the first and second inter-repeat regions of the MT binding domain (FIG. 5), and it is known that engineered truncation fragments of tau that contain these motifs often undergo aggregation into fibers even more efficiently than the full-length molecule (see, e.g. Barghorn et al., Biochemistry 41, 14885-96 (2002)). […]

tau187 [2] = target: T2, tau187; test: UV absorbance spectra, binding to tau; settings: trimer 15 uM, 0-17.6 uM tau187, isosbestic point
Description: FIG. 2. UV absorbance spectra of purified A-type proanthocyanidin trimer as a function of increasing tau concentration. The curves from top to bottom (at A280) are as follows: 0 uM; 4.4 uM; 8.8 uM; 17.6 uM tau^187; proanthocyanidin trimer=15 uM. As is known in the art, the isobestic points are found where the curves overlap.
as §1, with “aggregation. In illustrative experiments, full-length tau and an engineered truncation fragment of tau (tau187) were generated by over-expression of the recombinant human protein in bacteria followed by purification to homogeneity by conventional chromatography. […] The UV spectra display an isosbestic point consistent with a specific binding mechanism.” for “aggregation.”

tau filaments = test: Transmission electron microscopy of tau filaments; type: biochemical; settings: aggregating conditions
Chain of tau filaments (P10636 572-758 limits assumed): as above
Source text: In one illustrative embodiment of the invention, transmission electron microscopy, is a highly desirable technique for studies of aggregation with heparin and water or with heparin and purified proanthocyanidin or cinnamon extracts from Cinnamomum zeylanicum, Cinnamomum cassia, or Cinnamomum loueirii. It provides definition of what the aggregates actually are, e.g., filaments and their abundance, sizes, and shapes.

[3] = test system: Full-length tau or tau 187; test: Gel electrophoresis of sarkosyl pellets vs supernatants; type: biochemical, human
Chain of Full-length tau or tau 187 (P10636 572-758 limits assumed): as above
Description: In one illustrative embodiment of the invention, gel electrophoresis also can be used to study effects on aggregation. The advantage here is that simple equipment is needed for these measurements but the system provides less definition of the effects of the inhibitors than electron microscopy. Full-length tau or tau 187 (50 uM) is induced to undergo aggregation with heparin (0.1 mg/ml) for 16 hours at room temperature in the presence of varying concentrations of cinnamon extract or cinnamon proanthocyanidin type A trimer. Samples are then treated with 1% sarkosyl for 1 hr, centrifuged (105,000 g×1 hr), and the pellets (P) versus supernatants (S) then analyzed by SDS-PAGE. The increase in the ratio of tau in the pellet compared to the supernatant is a measure of aggregation and cinnamon extract or purified proanthocyanidin is found to decrease this ratio.

adipocyte cells = settings: 0.1 mg/ml PA trimer; Graves et al. 2001; cited from earlier work

Chain of tau polypeptides (P10636 572-758 limits assumed): as above

Inhibition of tau187 aggregation by EM (tau187 [1]): effectively inhibited
Binding to tau by change in UV absorbance spectrum (tau187 [2]): displays affinity for monomeric tau
Binding to tau by change in UV absorbance spectrum (tau187 [2]; listed as proanthocyanidin A): binds directly to tau
Substance: A-linked proanthocyanidin trimer [A-type trimer]
Inhibition of tau aggregation by light scattering (tau polypeptides): inhibits the aggregation
FL-tau fibers by EM after aggregation for 45 min (FL-tau): short fibers that were very much less abundant
Formation of tau filaments by transmission electron microscopy (tau filaments): inhibited
Tau aggregation by gel electrophoresis [3]: less aggregation of tau
Glucose uptake (adipocyte cells): increase in glucose uptake
